Where a SMILES comes first, the peptide text is derived from it. The star is where a group is joined. 5TAMRA = CN(C)c1ccc2c(c1)Oc1cc(N(C)C)ccc1C21OC(=O)c2cc(C(=O)*)ccc21; X1 = [N-]=[N+]=Nc1c(F)c(F)c(C(=O)*)c(F)c1F
Experiments:
[1] = pI mobility standard
Excerpt: The pI of standards can be determined directly in IEF PAGE gels using a pH meter with a microprobe.

[2] = expected pKa's, net charge and pI of the Example 5 peptide; assay type: physicochemical
Excerpt: The blocks of lysine (K) and glutamic acid (E) residues contain basic and acidic ionizable groups at a variety of pKa values in keeping with the proximity effects described above. […] The approximate expected net charge on the peptide at various pH values is then as follows: pH 11, −3; pH 10, −2.5; pH 9, −1.7; pH 8, −0.8; pH 7, +0.3; pH 6, +1.2; pH 5, +2.3; pH 4, +3.2; pH 3, +4, pH 2, +4.5; pH 1, +5. […] The peptide is therefore expected to be a useful pI standard that forms a tight band under electrophoretic conditions in a pH gradient. Additional standards of desired pIs can be generated by systematically varying the number of sequential K and E residues in a set of peptides based on the above sequence.

Compound	pI [1]	approximate expected net charge ([2]; pH 1)	approximate expected net charge ([2]; pH 2)	approximate expected net charge ([2]; pH 3)	approximate expected net charge ([2]; pH 4)	approximate expected net charge ([2]; pH 5)	approximate expected net charge ([2]; pH 6)	approximate expected net charge ([2]; pH 7)	approximate expected net charge ([2]; pH 8)	approximate expected net charge ([2]; pH 9)	approximate expected net charge ([2]; pH 10)	approximate expected net charge ([2]; pH 11)
C[C@H](NC(=O)CNC(=O)[C@@H](N)CCCCNC(=O)c1c(F)c(F)c(N=[N+]=[N-])c(F)c1F)C(=O)N[C@@H](CCC(=O)O)C(=O)N[C@@H](Cc1c[nH]cn1)C(=O)N[C@@H](Cc1c[nH]cn1)C(=O)N[C@@H](CCCCNC(=O)c1ccc2c(c1)C(=O)OC21c2ccc(N(C)C)cc2Oc2cc(N(C)C)ccc21)C(=O)NCC(=O)O [H2N—K(ATFB)GAEHHK(5-TAMRA)G-OH] (H-K(X1)GAEHHK(5TAMRA)G-OH)	approximately 5.45											
Ac—K(ATFB) KKKKKAibAibEEEGG K(5-TAMRA)G-NH2		~+5	~+4.5	~+4	~+3.2	~+2.3	~+1.2	~+0.3	~−0.8	~−1.7	~−2.5	~−3
